Measured values reported in paper PMC8099913, “FoldAffinity: binding affinities from nDSF experiments” (Scientific Reports, 2021).
“And” between values parts separate entries of the source, which are not always exact repeats. Identical values can stand only once. Like-named read-outs stand apart in the source and are kept apart here.

Columns and labels:
Pcs60 [1] = target: T1, Pcs60 (Saccharomyces cerevisiae, UniProt P38137); format: binding, S. cerevisiae; conditions: read-out: Kd (MST); Tref 21 °C; 1:1 model
Method: MST curves for Pcs60/ γ S-ATP were acquired with a Nanotemper Monolith NT.LabelFree (Nanotemper) using the MO.Control v1.6 acquisition software and Monolith NT.LabelFree capillaries. The same protein concentration and buffer conditions as for the nDSF experiments were used (9.9 μM). 16 different ligand concentrations (serial dilution with a factor of 2) in the range between 5 mM and 0.15 μM were used for each measurement. For the MST experiment the IR laser power was set to 20% and the UV laser power to 1%. In total, two independent measurements were done plus an additional repeat. The data was exported as xlsx and analyzed and plotted with a self-written Python script. The regions for Fnorm determination were − 1–0 s for “cold” and 19–20 s for “hot”. For each curve Fnorm was calculated as the ratio between the mean values in the “hot” and “cold” region. In the final step, Fnorm was fitted to a 1:1 binding model. The self-written Python scripts for spectral analysis including MST analysis are available online: https://github.com/steniegit/libspec

Pcs60 [2] = target: T1, Pcs60; experiment: Differential scanning calorimetry (DSC) of Pcs60 with γS-ATP; format: binding, S. cerevisiae; conditions: Pcs60 180 µM, γS-ATP 192 µM
Method: 2Differential scanning calorimetry of Pcs60
Figure S24. Differential scanning calorimetry (DSC) of Pcs60 (180 µM) in absence and presence of its ligand γS-ATP (192 µM). Here the raw data is shown before baseline correction. […] The […]
temperature of the ﬁrst transition is shifted by ligand binding from 41.5 to 43.4◦C. […]
affected upon ligand binding. Since the two transitions overlap, it was not possible to extract a reliable value of the heat capacity change upon unfolding ∆Cp.
(also on this page, place not known: 2 30 40 50 60 70 Temperature / C 11 10 9 8 7 6 DP / mJ/min PCS60 PCS60 + S-ATP Differential)
(1 picture or pasted object on this page, not shown here)

Pcs60 K523A mutant = Pcs60 K523A mutant (Saccharomyces cerevisiae, UniProt P38137, K523A); experiment: biochemical; format: binding, S. cerevisiae
Method: (§1) The following protocol was used for all nDSF experiments with Pcs60 and the nucleotide ligand γS-ATP. 14 dilutions of the nucleotide ligand (γS-ATP) starting at 5 mM at a constant Pcs60 concentration of 9.9 μM were prepared in buffer (50 mM HEPES pH 7.5, 150 mM NaCl, 0.5 mM TCEP). […] In addition to the ligand dilutions, a pure Pcs60 sample in the same buffer was used. If not stated otherwise, the measurements were run as triplicates (in total 45 temperature curves). The LED laser power for the experiments was between 70 and 80%.

Pcs60 [3] = target: T1, Pcs60; format: binding, S. cerevisiae
wild-type Pcs60 = wild-type Pcs60 (Saccharomyces cerevisiae, UniProt P38137); experiment: biochemical; format: binding, S. cerevisiae
Method: as §1
Figure S29. (A) nDSF binding study for wild-type Pcs60 WT/γS-ATP. The region in the colored box was used for isothermal
analysis. […] (C) Isothermal analysis for […]

EG1 = EG1 (Homo sapiens, UniProt Q9BW91); format: binding; conditions: ADPR 2 mM to 24 nM
SS1 = SS1 (Danio rerio, UniProt A0A0R4IMY7); format: binding, zebrafish
Sequence of SS1 (A0A0R4IMY7 32-415): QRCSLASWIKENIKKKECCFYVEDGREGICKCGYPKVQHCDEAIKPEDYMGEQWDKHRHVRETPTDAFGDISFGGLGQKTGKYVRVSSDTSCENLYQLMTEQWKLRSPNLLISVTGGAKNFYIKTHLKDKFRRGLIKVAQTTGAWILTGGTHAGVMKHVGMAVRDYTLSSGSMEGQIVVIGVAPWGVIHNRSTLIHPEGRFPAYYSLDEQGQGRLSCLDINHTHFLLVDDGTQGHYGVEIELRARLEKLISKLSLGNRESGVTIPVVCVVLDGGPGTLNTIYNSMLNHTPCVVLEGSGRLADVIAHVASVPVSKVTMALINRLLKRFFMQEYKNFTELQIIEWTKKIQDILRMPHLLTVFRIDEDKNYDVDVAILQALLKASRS

Sequence of Pcs60 K523A mutant (P38137 whole entry K523A): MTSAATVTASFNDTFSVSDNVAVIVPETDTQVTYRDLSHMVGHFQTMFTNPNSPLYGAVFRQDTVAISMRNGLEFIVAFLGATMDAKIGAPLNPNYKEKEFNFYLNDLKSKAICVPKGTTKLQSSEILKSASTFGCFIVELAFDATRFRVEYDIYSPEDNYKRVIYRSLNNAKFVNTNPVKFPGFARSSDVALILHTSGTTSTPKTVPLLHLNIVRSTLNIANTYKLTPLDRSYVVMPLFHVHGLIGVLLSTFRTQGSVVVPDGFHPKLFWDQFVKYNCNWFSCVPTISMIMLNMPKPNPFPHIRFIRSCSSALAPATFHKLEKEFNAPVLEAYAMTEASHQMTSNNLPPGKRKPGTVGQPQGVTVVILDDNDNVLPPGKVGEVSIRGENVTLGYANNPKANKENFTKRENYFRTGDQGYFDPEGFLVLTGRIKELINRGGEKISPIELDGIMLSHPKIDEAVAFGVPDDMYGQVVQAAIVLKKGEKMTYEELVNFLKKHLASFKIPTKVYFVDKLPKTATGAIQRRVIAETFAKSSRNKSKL
T1 sequence (P38137 whole entry): as the sequence (P38137 whole entry K523A) above, with A523K counted along it
Sequence of wild-type Pcs60 (P38137 whole entry): as the sequence (P38137 whole entry K523A) above, with A523K counted along it
Sequence of EG1 (Q9BW91 59-350): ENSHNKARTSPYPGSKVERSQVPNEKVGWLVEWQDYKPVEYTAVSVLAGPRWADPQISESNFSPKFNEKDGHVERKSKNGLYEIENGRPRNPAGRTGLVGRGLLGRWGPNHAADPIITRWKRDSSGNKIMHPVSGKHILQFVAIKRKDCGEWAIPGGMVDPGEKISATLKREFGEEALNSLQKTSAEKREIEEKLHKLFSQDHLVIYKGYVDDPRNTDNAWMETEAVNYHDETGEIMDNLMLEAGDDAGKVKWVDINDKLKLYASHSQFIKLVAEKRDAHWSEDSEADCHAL

## Nc1ncnc2c1ncn2[C@@H]1O[C@H](CO[P@](=O)(O)O[P@](=O)(O)O[P@@](=O)(O)S)[C@@H](O)[C@H]1O [γS-ATP]
Pcs60 [1]
  Kd: 16 µM
Pcs60 [2]
  second transition at […] (DSC) upon ligand binding: not
Pcs60 [2]; 41.5 °C in absence of ligand
  temperature of the first transition (DSC) upon ligand binding: 43.4 °C
Pcs60 K523A mutant; Kd (isothermal analysis)
  Kd: 252 µM and 297 µM and 246 µM and 236 µM and 227 µM and 219 µM and 212 µM and 221 µM
Pcs60 K523A mutant; read-out: Kd (isothermal analysis of nDSF)
  Kd: 213 µM
Pcs60 K523A mutant; read-out: Kd, melting temperature analysis model 1
  Kd: 741 µM
Pcs60 K523A mutant; read-out: Kd, melting temperature analysis model 2
  Kd: 117 µM
Pcs60 [3]; T=36 °C, fitted ∆Cp = 6.7 kcal/molK, read-out: Kd (isothermal analysis, fitted ∆Cp)
  Kd: 14.9 µM
Pcs60 [3]; T=38 °C, fitted ∆Cp = 6.7 kcal/molK, read-out: Kd (isothermal analysis, fitted ∆Cp)
  Kd: 15.4 µM
Pcs60 [3]; T=40 °C, fitted ∆Cp = 6.7 kcal/molK, read-out: Kd (isothermal analysis, fitted ∆Cp)
  Kd: 17.1 µM
Pcs60 [3]; T=42 °C, fitted ∆Cp = 6.7 kcal/molK, read-out: Kd (isothermal analysis, fitted ∆Cp)
  Kd: 21.9 µM
Pcs60 [3]; T=44 °C, fitted ∆Cp = 6.7 kcal/molK, read-out: Kd (isothermal analysis, fitted ∆Cp)
  Kd: 32.4 µM
Pcs60 [3]; T=46 °C, fitted ∆Cp = 6.7 kcal/molK, read-out: Kd (isothermal analysis, fitted ∆Cp)
  Kd: 41.1 µM
Pcs60 [3]; T=48 °C, fitted ∆Cp = 6.7 kcal/molK, read-out: Kd (isothermal analysis, fitted ∆Cp)
  Kd: 27.8 µM
Pcs60 [3]; Tiso 40 °C, ∆Cp = 0, read-out: Kd (isothermal analysis of nDSF)
  Kd: 18.4 µM
Pcs60 [3]; first transition
  Tm (melting temperature range of binding study): 37–48 °C
Pcs60 [3]; heating rate 1 °C/min, ∆Cp default 0 kcal/mol, Tsel 40 °C, read-out: Kd,Tsel
  Kd: 18 µM
Pcs60 [3]; heating rate 1 °C/min, ∆Cp fitted 6.7 kcal/mol, Tsel 38 °C, read-out: Kd,Tsel
  Kd: 17 µM
Pcs60 [3]; heating rate 3 °C/min, ∆Cp default 0 kcal/mol, Tsel 39 °C, read-out: Kd,Tsel
  Kd: 16 µM
Pcs60 [3]; heating rate 3 °C/min, ∆Cp fitted 6.7 kcal/mol, Tsel 39 °C, read-out: Kd,Tsel
  Kd: 19 µM
Pcs60 [3]; heating rate 5 °C/min, ∆Cp default 0 kcal/mol, Tsel 39 °C, read-out: Kd,Tsel
  Kd: 23 µM
Pcs60 [3]; heating rate 5 °C/min, ∆Cp fitted 6.7 kcal/mol, Tsel 40 °C, read-out: Kd,Tsel
  Kd: 24 µM
Pcs60 [3]; read-out: Kd,app,model1 (melting temperature analysis), single-site model, Eq. (1), first transition
  Kd: 144 µM
Pcs60 [3]; read-out: Kd,app,model2 (melting temperature analysis), model 2, Eq. (4), first transition
  Kd: 10.2 µM
wild-type Pcs60; T=36 °C, ∆Cp = 0, read-out: Kd (isothermal analysis)
  Kd: 19.7 µM
wild-type Pcs60; T=38 °C, ∆Cp = 0, read-out: Kd (isothermal analysis)
  Kd: 20.2 µM
wild-type Pcs60; T=40 °C, ∆Cp = 0, read-out: Kd (isothermal analysis)
  Kd: 21 µM
wild-type Pcs60; T=42 °C, ∆Cp = 0, read-out: Kd (isothermal analysis)
  Kd: 22.5 µM
wild-type Pcs60; T=44 °C, ∆Cp = 0, read-out: Kd (isothermal analysis)
  Kd: 24.9 µM
wild-type Pcs60; T=46 °C, ∆Cp = 0, read-out: Kd (isothermal analysis)
  Kd: 28.7 µM
wild-type Pcs60; T=48 °C, ∆Cp = 0, read-out: Kd (isothermal analysis)
  Kd: 39.5 µM
wild-type Pcs60; T=50 °C, ∆Cp = 0, read-out: Kd (isothermal analysis)
  Kd: 78 µM
wild-type Pcs60; T=52 °C, ∆Cp = 0, read-out: Kd (isothermal analysis)
  Kd: 146 µM
wild-type Pcs60; isothermal analysis, read-out: Kd values (summary in legend)
  Kd: ~20 µM
wild-type Pcs60; read-out: Kd,app Model 1 (melting temperature analysis)
  Kd: 195 µM
wild-type Pcs60; read-out: Kd,app Model 2 (melting temperature analysis)
  Kd: 15.6 µM

## adenosine diphosphate ribose [ADPR]
EG1
  Tm (melting temperature range of binding study): 51–56 °C
SS1
  Tm (melting temperature range of binding study): 50–60 °C
